# Results from US20260284041A1, “PREVENTIVE OR THERAPEUTIC AGENT FOR NEURODEGENERATIVE DISEASE” (MEDILABO RFP, INC., priority 2023, published 2026).
# What was measured:
# [1] = tested on: C9orf72 HRE-derived RNAs; settings: in vitro; cited from earlier work
# [2] = tested on: PKR; settings: reported in NPL 31; cited from earlier work
# [3] = tested on: FTD/ALS model mice; assay: Morris water maze test after nasal rifampicin and/or resveratrol (Test Example 2); format: in vivo, mouse; settings: 1 month, 7- to 8-month-old mice, single agents 0.04 mg/day, combination 0.02 mg + 0.02 mg/day, FIG. 10
# Description: FVB/NJ-Tg(C9orf72)500Lpwr/J mice (FTD/ALS model mice) were purchased from The Jackson Laboratory (Bar Harbor, ME, USA). The mouse strain was generated as a model for the C9orf72-associated FTD/ALS expressing the human C9orf72 gene with about 500 hexanucleotide (GGGGCC) repeats using a bacterial artificial chromosome (BAC) vector. Transgenic (Tg) mice were crossed with wild-type FVB/NJcl mice, and the transgene was maintained as a heterozygote at our animal facility.
# (§1) Age-matched non-Tg […] mates received only CMC.
# After administration for one month, the cognitive function of the mice was assessed in the Morris water maze test as described above.
# [4] = tested on: FTD/ALS model mice; assay: Immunohistochemical analysis of brain sections (Test Example 2); format: in vivo, mouse; settings: single agents 0.04 mg/day, combination 0.02+0.02 mg/day, nasal 1 month
# Experimental: as §1
# After the behavioral test, each group was divided into two groups: one for immunohistochemical analysis and the other for future biochemical analysis. Immunohistochemical staining was performed as described above. For staining of double-stranded RNA-dependent protein kinase (PKR), phosphorylated TDP-43, synaptophysin, sections were boiled in 10 mM citrate buffer solution (pH6) for 30 min to expose the antigens. The sections were blocked overnight with 10% calf serum, and then the resultant sections were stained with antibodies for DNA/RNA G-quadruplex (BG4; Absolute antibody, Cleveland, UK), phospho-PKR (Thr446) (MilliporeSigma, Burlington, MA, USA), poly-GA, poly-GP (Cosmo Bio Co., Ltd., Tokyo, Japan), pSer409/410-TDP-43 (Cosmo Bio Co., Ltd.), and synaptophysin (SVP-38; Sigma-Aldrich, St. Luis, MO, USA). Only synaptophysin was stained with a biotin-labeled secondary antibody (Vector Laboratories, Burlingame, CA, USA), a horseradish peroxidase (HRP)-labeled avidin-biotin complex (Vector Laboratories), HRP substrate, diaminobenzidine (DAB), or an FITC-labeled secondary antibody (The Jackson Laboratory). […] Neuropathologies were evaluated by measuring the staining intensity or area or by counting positive puncta or cells in a constant area in each photograph using NIH ImageJ software.
# [5] = tested on: BDNF; settings: stated in discussion, no method given; cited from earlier work
# [6] = cited from earlier work
# [7] = tested on: FTD/ALS model mice (C9-500 mice); assay: Morris water maze test after nasal rifampicin (Test Example 1); format: in vivo, mouse; settings: nasal 0.1 mg/day for 1 month; Tg mice 4.5 to 5 months old at start; vs CMC-treated Tg (p=0.0271, FIG. 4)
# Description: FVB/NJ-Tg(C9orf72)500Lpwr/J mice were purchased from The Jackson Laboratory (Bar Harbor, ME, USA). The mouse strain was generated as a model for the C9orf72-linked FTD/ALS expressing the human C9orf72 gene with 500 hexanucleotide (GGGGCC) repeats (hereinafter, it is also described as “FTD/ALS model mice”) using a bacterial artificial chromosome (BAC) vector. Transgenic (Tg) mice were crossed with wild-type FVB/NJcl mice, and the transgene was maintained as a heterozygote at the animal facility in our company.
# The cognitive function of the mice was assessed in a Morris water maze test at the age of 4.5 months, and the motor function of the mice was assessed in the rotarod and inverted screen tests at the age of 4.5 months and at the age of 12 months in an above-described manner.
# (§2) 4-and-a half to 5-month-old FTD/ALS model mice were divided into two groups. […] Non-Tg littermates were treated with CMC alone. […] After the behavioral test, each group was divided into two groups: one group for immunohistochemical analysis and the other group for future biochemical analysis. For immunohistochemical analysis, brain sections were prepared as described above, while for biochemical analysis, whole brains were removed and frozen at −80° C. until use.
# [8] = tested on: FTD/ALS model mice (C9-500 mice); assay: Double staining for RNA foci and cytoplasmic inclusions (Test Example 1); format: in vivo, mouse; settings: PFC and MC; nasal 0.1 mg/day for 1 month; FIG. 6
# Description: To examine the formation of nuclear and cytoplasmic inclusions, the sections were double stained with antibodies to G-quadruplex and hnRNP H1 (Proteintech, Rosemont, IL, USA) without pretreatment for RNA foci, and pSer409/410-TDP-43 and amyloidogenic protein oligomers (F11G3; Sigma-Aldrich) after pretreatment at pH6 for TDP-43 oligomer inclusions. For DPR inclusions, the sections were double-stained with antibodies to poly-GA, poly-GP, poly-GR, and SQSTM1/p62 (A-6; Santa Cruz Biotechnology, Dallas, TX, USA) without pretreatment. After staining, FITC- and rhodamine-labeled secondary antibodies (Jackson Laboratory) were used. The specimens were then treated with TrueBlack Plus Lipofuscin (Biotium, Fremont, CA, USA) to quench the autofluorescence and mounted using a Vectashield vibrance antifade mounting medium with DAPI (Vector Laboratories). Images of the stained sections were taken with a BZ-X800 fluorescence microscope, and cells having inclusion bodies were counted in a certain area.
# as §2
# [9] = tested on: (GGGGCC)4 oligonucleotides; assay: Gel shift assay for G-quadruplex; format: biochemical; settings: 1 mM rifampicin, 5 μM DNA, 100 mM KCl; FIG. 8A
# Experimental: The gel shift assay to detect G-quadruplex formation was performed. Sense (GGGGCC)4, antisense (GGCCCC)4, and Control (ATGC)6 oligonucleotides were synthesized and solubilized to 100 μM in 0.89 M of Tris-borate buffer, pH8.3 containing 0.02 M of EDTA (TBE). […] The mixtures were incubated at 98° C. for 3 min and slowly cooled to room temperature. The samples were mixed with Blue/Orange Loading Dye (Promega Corporation, Madison, WI, USA) and subjected to native PAGE with 20% polyacrylamide gel (Novex TBE Gels, Invitrogen, Carlsbad, CA, USA) and TBE running buffer containing 50 mM KCl. The gels were stained with SYBR Gold nucleic acid gel stain (Invitrogen) for 10 min, and images were acquired using an ImageQuant LAS 500 image analyzer (GE Healthcare, Hino, Japan).
# [10] = tested on: phospho-PKR (Thr446); assay: Immunohistochemical studies of phosphorylated PKR (Test Example 1); format: in vivo, mouse; settings: PFC and MC; nasal 0.1 mg/day for 1 month; FIG. 8B
# Experimental: as §2
compound,measurement,setting,value
CC(=O)O.N [ammonium acetate],RNA gelation and RNA foci formation,[1],inhibited
COc1cccc2c1C(=O)c1c(O)c3c(c(O)c1C2=O)C[C@@](O)(C(=O)CO)C[C@@H]3O[C@H]1C[C@H](N)[C@H](O)[C@H](C)O1 [doxorubicin],RNA gelation and RNA foci formation,[1],inhibited
CN(C)C(=N)N=C(N)N [metformin],RAN translation / PKR phosphorylation and phenotype of C9-500 mice,[2],suppress RAN translation by suppressing PKR phosphorylation
"Oc1ccc(/C=C/c2cc(O)cc(O)c2)cc1 [resveratrol, 3,5,4′-trihydroxy-trans-stilbene]","cognitive function, Morris water maze",[3],significantly improved
same,synaptophysin levels (synaptic loss),"[4]; hippocampus CA2-3 region and dentate gyrus (DG), FIG. 11",significantly restored
same,levels of G-quadruplex,"[4]; prefrontal cortex, FIG. 12",significantly reduced
same,levels of phosphorylated PKR,"[4]; prefrontal cortex, FIG. 13",significantly reduced
same,levels of poly-GA and poly-GP,"[4]; prefrontal cortex, FIG. 14",significantly reduced
same,levels of phosphorylated TDP-43,"[4]; prefrontal cortex, FIG. 15",significantly reduced
same,expression of BDNF in the mouse brains,[5],elicited
same,solubility in water,[6],30 µg/mL
"CO[C@H]1/C=C/O[C@@]2(C)Oc3c(C)c(O)c4c(O)c(c(/C=N/N5CCN(C)CC5)c(O)c4c3C2=O)NC(=O)/C(C)=C\C=C\[C@H](C)[C@H](O)[C@@H](C)[C@@H](O)[C@@H](C)[C@H](OC(C)=O)[C@@H]1C [rifampicin, 3-(4-Methylpiperazinyliminomethyl)rifamycin SV]","memory performance (cognitive function), water maze test",[7],significantly improved
same,DPR cytoplasmic inclusions (DPRs and p62 double positive),[8],significantly attenuated
same,TDP-43 oligomer cytoplasmic inclusions (pTDP-43 and F11G3 double positive),[8],significantly attenuated
same,formation of RNA foci (G-quadruplex and hnRNP H double positive),[8],significantly attenuated
same,inhibition of G-quadruplex formation,[9],failed to inhibit
same,levels of phosphorylated PKR,[10],significantly attenuated
same,"cognitive function, Morris water maze",[3],"improved the cognitive function in the mice, but the effect was incomplete and not significant"
